Values of other authors, collected in patent US6458790B2, “Substituted piperidines as melanocortin receptor agonists” (Merck & Co., Inc., priority 2000, dated 2002).

How the values were obtained:
[1] = tested on: men with erectile dysfunction; details: for duration of effect / onset of action: after an oral dose; for share of men/patients in whom effective (adequate response): oral
[2] = tested on: males with psychogenic erectile dysfunction
[3] = subcutaneous injection formulation

Row | Compound | duration of effect [1] | onset of action [1] | share of men/patients in whom effective (adequate response) [1] | absorption into the systemic circulation ([2]; human, in vivo, po) | response rate ([2]; injected intramuscularly or subcutaneously) | duration of action [2, 3] | time to onset of erection [2, 3]
1 | Cc1ccc(N(CC2=NCCN2)c2cccc(O)c2)cc1 [phentolamine] | 2 h | 5 to 30 min | 35-40% | – | – | – | –
2 | Ac-Nle-c[Asp-His-DPhe-Arg-Trp-Lys]-NH2 [MT-II] | – | – | – | not absorbed into the systemic circulation | 75% | approximately 2.5 hours | 10 to 20 min
3 | CCCc1nn(C)c2c(=O)[nH]c(-c3cc(S(=O)(=O)N4CCN(C)CC4)ccc3OCC)nc12 [Sildenafil] | about 4 hours | 30 to 60 min | about 70% | – | – | – | –
